Data taken from US12281363B2, “Methods for detecting antiviral-drug resistant virus” (Secretary of State for Health and Social Care, priority 2018, dated 2025).
Read-outs that look alike come from different tables or passages of the source.

Test system: HSV-2
Test: Plaque reduction assay, HSV-2 clinical isolates on Vero cells
Format: cell-based
Details: Human alphaherpesvirus 2, Vero
From the text: Viral isolates were used to infect a sub-confluent monolayer of Vero cells at a concentration of 75 or 50 plaque forming units (PFU) per well for HSV-1 and HSV-2, respectively. […] CMC medium typically used to create a semisolid interface and prevents indiscrimate viral spreading. Other materials (e.g. agar) may also be used to create this interface.
Cells were fixed with 10% formalin and stained with crystal violet before enumeration of the plaques (microscopic observation or use of fluorescent antibodies for detection is also suitable). The data obtained from these experiments were then expressed as percent inhibition of viral infectivity relative to the no drug control.
Definitions of phenotypic drug susceptibility classification as sensitive or resistant were as follows: ACV, <3 μM or >40 μM; PCV, <10 μM or >40 μM; CDV, <24 μM or >30 μM; FOS, <250 μM or >400 μM; and ACV, <6.5 μM or >40 μM; PCV, <38 μM or >40 μM; FOS, <250 μM or >400 μM for HSV-1 and HSV-2, respectively. Any IC50 values falling in between these sensitive and resistant cut-offs were reported as intermediate resistance.
The phenotype (i.e. reactivity to a drug) of the virus was characterised by the plaque reduction assay as described above. The present inventors have characterised the resistance-causing phenotype of a large number of TK and DNA pol mutations.

Nc1nc2c(ncn2CCC(CO)CO)c(=O)[nH]1 [Penciclovir, penciclovir] was tested, and the IC50 (isolate HPG001, HSV-2 TK A125T (373G>A), read-out: Drug susceptibility (IC50 value)) was 8.2 µM, the IC50 (isolate HPG001, HSV-2 TK A125T (373G>A), read-out: Drug susceptibility Penciclovir (PCV)) was less than 38 µM and the IC50 (isolate HPG001, HSV-2 pol H714R (2141A>G), read-out: Drug susceptibility (IC50 value)) was 8.2 µM. The IC50 (isolate HPG001, HSV-2 pol H714R (2141A>G), read-out: Drug susceptibility Penciclovir (PCV)) was less than 38 µM, the IC50 (isolate HPG004, HSV-2 pol M494T (1481T>C), also pol S729N, read-out: Drug susceptibility (IC50 value)) was greater than 160 µM and the IC50 (isolate HPG004, HSV-2 pol M494T (1481T>C), also pol S729N, read-out: Drug susceptibility Penciclovir (PCV)) was greater than 40 µM. It also gave an IC50 (isolate HPG007, HSV-2 pol R628G (1882C>G), read-out: Drug susceptibility (IC50 value)) greater than 160 µM, an IC50 (isolate HPG007, HSV-2 pol R628G (1882C>G), read-out: Drug susceptibility Penciclovir (PCV)) greater than 40 µM and an IC50 (isolate HPG017, HSV-2 TK Q186H (558G>T), read-out: Drug susceptibility (IC50 value)) of 64.7 µM. The IC50 (isolate HPG017, HSV-2 TK Q186H (558G>T), read-out: Drug susceptibility Penciclovir (PCV)) was greater than 40 µM, the IC50 (isolate HPG022, HSV-2 TK E213D (639A>C), read-out: Drug susceptibility (IC50 value)) was 26.9 µM and the IC50 (isolate HPG022, HSV-2 TK E213D (639A>C), read-out: Drug susceptibility Penciclovir (PCV)) was less than 38 µM. It also gave an IC50 (isolate HPG022, HSV-2 pol D174Y (520G>T), read-out: Drug susceptibility (IC50 value)) of 26.9 µM, an IC50 (isolate HPG022, HSV-2 pol D174Y (520G>T), read-out: Drug susceptibility Penciclovir (PCV)) of less than 38 µM and an IC50 (isolate HPG023, HSV-2 TK Q186H (558G>T), read-out: Drug susceptibility (IC50 value)) of 31.1 µM. It also gave an IC50 (isolate HPG023, HSV-2 TK Q186H (558G>T), read-out: Drug susceptibility Penciclovir (PCV)) of less than 38 µM, an IC50 (isolate HPG024, HSV-2 TK E213D (639A>C), read-out: Drug susceptibility (IC50 value)) of 9.08 µM and an IC50 (isolate HPG024, HSV-2 TK E213D (639A>C), read-out: Drug susceptibility Penciclovir (PCV)) of less than 38 µM. It also gave an IC50 (isolate HPG028, HSV-2 TK 98stop or A94fs (276delG, 278delG, 279delG, or 280delG), read-out: Drug susceptibility (IC50 value)) greater than 160 µM, an IC50 (isolate HPG028, HSV-2 TK 98stop or A94fs (276delG, 278delG, 279delG, or 280delG), read-out: Drug susceptibility Penciclovir (PCV)) greater than 40 µM and an IC50 (isolate HPG028, HSV-2 pol E776Q (2326G>C), also TK deletion (G) nt 276-280, read-out: Drug susceptibility (IC50 value)) greater than 160 µM. For the same molecule, the IC50 (isolate HPG028, HSV-2 pol E776Q (2326G>C), also TK deletion (G) nt 276-280, read-out: Drug susceptibility Penciclovir (PCV)) was greater than 40 µM, the IC50 (isolate HPG028, HSV-2 pol R775C, R775W (2323C>T; 2325C>G), also TK deletion (G) nt 276-280, read-out: Drug susceptibility (IC50 value)) was greater than 160 µM and the IC50 (isolate HPG028, HSV-2 pol R775C, R775W (2323C>T; 2325C>G), also TK deletion (G) nt 276-280, read-out: Drug susceptibility Penciclovir (PCV)) was greater than 40 µM. It also gave an IC50 (isolate HPG030, HSV-2 TK Q90stop (268C>T), read-out: Drug susceptibility (IC50 value)) greater than 160 µM, an IC50 (isolate HPG030, HSV-2 TK Q90stop (268C>T), read-out: Drug susceptibility Penciclovir (PCV)) greater than 40 µM and an IC50 (isolate HPG030, HSV-2 pol E761K (2281G>A), also TK Q90stop, read-out: Drug susceptibility (IC50 value)) greater than 160 µM. For the same molecule, the IC50 (isolate HPG030, HSV-2 pol E761K (2281G>A), also TK Q90stop, read-out: Drug susceptibility Penciclovir (PCV)) was greater than 40 µM, the IC50 (isolate HPG034, HSV-2 TK L313S (938A>C), read-out: Drug susceptibility Penciclovir (PCV)) was greater than 40 µM and the IC50 (isolate HPG036, HSV-2 TK E84K (250G>A), read-out: Drug susceptibility (IC50 value)) was greater than 160 µM. The IC50 (isolate HPG036, HSV-2 TK E84K (250G>A), read-out: Drug susceptibility Penciclovir (PCV)) was greater than 40 µM, the IC50 (isolate HPG038, HSV-2 TK R34C (100C>T), read-out: Drug susceptibility (IC50 value)) was 9.64 µM and the IC50 (isolate HPG038, HSV-2 TK R34C (100C>T), read-out: Drug susceptibility Penciclovir (PCV)) was less than 38 µM. It also gave an IC50 (isolate HPG044, HSV-2 TK M86L (256A>C), read-out: Drug susceptibility (IC50 value)) greater than 160 µM, an IC50 (isolate HPG044, HSV-2 TK M86L (256A>C), read-out: Drug susceptibility Penciclovir (PCV)) greater than 40 µM and an IC50 (isolate HPG048, HSV-2 TK Q90stop (268C>T), read-out: Drug susceptibility (IC50 value)) greater than 160 µM. It also gave an IC50 (isolate HPG048, HSV-2 TK Q90stop (268C>T), read-out: Drug susceptibility Penciclovir (PCV)) greater than 40 µM, an IC50 (isolate HPG048, HSV-2 pol E761K (2281G>A), also TK Q90stop, read-out: Drug susceptibility (IC50 value)) greater than 160 µM and an IC50 (isolate HPG048, HSV-2 pol E761K (2281G>A), also TK Q90stop, read-out: Drug susceptibility Penciclovir (PCV)) greater than 40 µM. The IC50 (isolate HPG057, HSV-2 TK 98stop or A94fs (276delG, 278delG, 279delG, or 280delG), read-out: Drug susceptibility (IC50 value)) was greater than 160 µM, the IC50 (isolate HPG057, HSV-2 TK 98stop or A94fs (276delG, 278delG, 279delG, or 280delG), read-out: Drug susceptibility Penciclovir (PCV)) was greater than 40 µM and the IC50 (isolate HPG058, HSV-2 TK 183stop or P154fs (458delC, 459delC, 460delC, or 461delC), read-out: Drug susceptibility (IC50 value)) was greater than 160 µM. The IC50 (isolate HPG058, HSV-2 TK 183stop or P154fs (458delC, 459delC, 460delC, or 461delC), read-out: Drug susceptibility Penciclovir (PCV)) was greater than 40 µM, the IC50 (read-out: Drug susceptibility (IC50 value), isolate HPG034, HSV-2 TK L313S (938A>C)) was greater than 160 µM and the IC50 (read-out: Drug susceptibility (IC50 value), isolate HPG056, HSV-2 pol M447L (1339A>C)) was 8.61 µM. It also gave an IC50 (read-out: Drug susceptibility Penciclovir (PCV), isolate HPG056, HSV-2 pol M447L (1339A>C)) of less than 38 µM.
